Experiments:
Type in all cases: in vivo, mouse
ddY mice [1] = assay: Novel object recognition test (NORT), offspring after MIA
Method: Experiments of TPPU in drinking water. For experiment of TPPU (synthesized at UC Davis, CA) in drinking water in juvenile and adolescent stages, TPPU (15 mg/L) or water in drinking water was given in the male offspring from P28 to P56. Subsequently, normal water was given to all groups for 4 weeks (P57-P84). Behavioral tests of adult offspring were performed during adulthood (P70-P84) after prenatal poly(I:C) injections (FIG. 4A).
For experiment of TPPU in drinking water in pregnant stages, TPPU (15 mg/L) or water in drinking water was given in the pregnant mice from E12 to P21. Subsequently, normal water was given to all groups for […] (P21-P42). Behavioral tests of offspring were performed during juvenile stage (P28-P42) after prenatal poly(I:C) injections (FIG. 6A).
Novel Object Recognition Test (NORT): Mice were habituated for 10 minutes in the box for 3 straight days. At 4th day, two objects (differing in shape and color but of similar size) were placed in the box 35.5 cm apart (symmetrically), and each animal was allowed to explore in the box for 5 minutes. […] The time that mice spent exploring each object was recorded. […] The mice were then allowed to explore freely for 5 minutes, and the time spent exploring each object was recorded. […]

[2] = Measurement of glyphosate in the blood (LC/MS/MS); details: mothers treated with 0.095% glyphosate E5-P21 and their offspring
Method: Measurement of glyphosate in the blood. Water or 0.095% glyphosate was given to pregnant mice from E5 to P21, as described above. At weaning (P21), mothers and male offspring mice were deeply anesthetized with isoflurane and plasma was collected. The plasma samples were stored at −80° C. before assay. Measurement of glyphosate in the plasma was performed using LC/MS/MS at UC Davis.
The 40 μL of internal standard (2 μg/mL of glyphosate-2-^13C solution in methanol) and 40 μL of methanol were added to 20 μL of plasma. The spiked sample was vortexed for 5 minutes and then centrifuged at […] for another 5 minutes. The supernatants were transferred for the followed LC/MS/MS measurement, which uses Waters Acquity UPLC system (Waters, Milford, MA) interfaced with a QTRAP 6500+ mass spectrometer (Sciex, Redwood City, CA) using electrospray source. The separation was achieved on a Waters Acquity BEH C18 50×2.1 mm 1.7 μm column with mobile phases of water with 0.1% of formic acid as mobile phase A and acetonitrile with 0.1% of formic acid as mobile phase B. The gradient was shown in Table 10. All the parameters on the mass spectrometer were optimized with pure standards of glyphosate and glyphosate-2-^13C (purchased from Millipore Sigma, Burlington MA) under positive MRM mode.

ddY mice [3] = assay: Prepulse inhibition (PPI) test, offspring after maternal glyphosate exposure; details: juvenile offspring, maternal 0.095% glyphosate vs water
Method: PPI: The offspring mice were tested for their acoustic startle reactivity (ASR) in a startle chamber (SR-LAB; San Diego Instruments, San Diego, CA, USA) using the standard methods described previously (9,10). The test sessions were begun after an initial 10-min acclimation period in the chamber. The mice were subjected to one of six trials: (1) pulse alone, as a 40 ms broadband burst; a pulse (40 ms broadband burst) preceded by 100 ms with a 20 ms prepulse that was (2) 4 dB, (3) 8 dB, (4) 12 dB, or (5) 16 dB over background (65 dB); and (6) background only (no stimulus). The amount of prepulse inhibition (PPI) was expressed as the percentage decrease in the amplitude of the startle reactivity caused by presentation of the prepulse (% PPI). The PPI test lasted 20 min in total.

sEH = assay: Western blot of sEH in brain regions after maternal glyphosate exposure
Source text: Collection of blood and brain samples and oxylipin analysis. Water or 0.095% glyphosate was given to pregnant mice from E5 to P21, as described above. The male offspring were separated from their mothers at weaning (P21). At juvenile (P28) stage, mice were deeply anesthetized with isoflurane and plasma was collected. Subsequently, brains were removed from the skulls. For Western blot analysis, brain regions such as prefrontal cortex (PFC), hippocampus, and striatum, were dissected from brain on ice. The samples were stored at −80° C. before assay. For oxylipin analysis, plasma was collected after isoflurane anesthesia at juvenile (P28) stage. Subsequently, PFC, hippocampus, and striatum were dissected from brain on ice, and the samples were stored at −80° C. before assay. […]
Western blot analysis. […] 50 μg of protein were measured using the DC protein assay kit (Bio-Rad), and incubated for 5 min at 95° C., with an equal volume of 125 mM Tris-HCl, pH6.8, 20% glycerol, 0.1% bromophenol blue, 10% β-mercaptoethanol, 4% sodium dodecyl sulfate, and subjected to sodium dodecyl sulfate polyacrylamide gel electrophoresis, using 7.5% or AnyKD mini-gels (Mini-PROTEAN® TGX™ Precast Gel; Bio-Rad, CA, USA). […] After final three washes with TBST, bands were detected using enhanced chemiluminescence (ECL) prime Western Blotting Detection system (GE Healthcare Bioscience). […]

Compound	exploratory preference in NORT (ddY mice [1]; adult offspring after prenatal poly(I:C) exposure)	exploratory preference, retention session of NORT (ddY mice [1]; juvenile offspring, poly(I:C)+water group vs saline+water group)	blood levels of glyphosate on P21 (weaning) [2]	prepulse inhibition (PPI) (ddY mice [3])	protein levels of sEH in the PFC, hippocampus, and striatum (sEH; juvenile offspring (P28) after maternal glyphosate exposure vs water)	protein levels of sEH in the PFC and striatum of mothers (sEH; mothers treated with glyphosate vs water-treated mice)
polyriboinosinic-polyribocytidilic acid [Poly(I:C)]	Decreased	significantly lower	–	–	–	–
O=C(O)CNCP(=O)(O)O [glyphosate]	–	–	could detect	not different	significantly higher	significantly higher

— patent publication US12357598B2, “Treatment of neurodevelopmental disorders” (THE REGENTS OF THE UNIVERSITY OF CALIFORNIA, priority 2018, dated 2025)
